From the supplement of paper PMC10307832

Key:
Test in all cases: relative viability (nuclei count vs DMSO), 5 days (fraction); higher = more cells survive
Venetoclax + Olaparib = compound: CC1(C)CCC(CN2CCN(c3ccc(C(=O)NS(=O)(=O)c4ccc(NCC5CCOCC5)c([N+](=O)[O-])c4)c(Oc4cnc5[nH]ccc5c4)c3)CC2)=C(c2ccc(Cl)cc2)C1 [Venetoclax] + O=C(c1cc(Cc2n[nH]c(=O)c3ccccc23)ccc1F)N1CCN(C(=O)C2CC2)CC1 [Olaparib] (partner 8 µM)
How it was run: (§1)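 Lung cancer cell lines in 1536-well plates got either a single drug or a fixed anchor-drug dose together with five library-drug doses (not always all listed) in √10 steps, by pin tool, on the day after seeding. Nuclei were counted after 5 days, and relative viability is the treated-to-vehicle ratio of nuclei counts. Values are medians of duplicate plates.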

Selumetinib + Linsitinib = compound: Cn1cnc2c(F)c(Nc3ccc(Br)cc3Cl)c(C(=O)NOCCO)cc21 [Selumetinib] + C[C@]1(O)C[C@@H](c2nc(-c3ccc4ccc(-c5ccccc5)nc4c3)c3c(N)nccn32)C1 [Linsitinib] (partner 1 µM)
How it was run: as §1

Selumetinib + Bortezomib = compound: Cn1cnc2c(F)c(Nc3ccc(Br)cc3Cl)c(C(=O)NOCCO)cc21 [Selumetinib] + CC(C)C[C@H](NC(=O)[C@H](Cc1ccccc1)NC(=O)c1cnccn1)B(O)O [Bortezomib] (partner 0.002 µM)
How it was run: as §1

Venetoclax + Alpelisib = compound: CC1(C)CCC(CN2CCN(c3ccc(C(=O)NS(=O)(=O)c4ccc(NCC5CCOCC5)c([N+](=O)[O-])c4)c(Oc4cnc5[nH]ccc5c4)c3)CC2)=C(c2ccc(Cl)cc2)C1 [Venetoclax] + Cc1nc(NC(=O)N2CCC[C@H]2C(N)=O)sc1-c1ccnc(C(C)(C)C(F)(F)F)c1 [Alpelisib] (partner 2 µM)
How it was run: as §1

| Cell Line | relative viability (Venetoclax + Olaparib; first compound 0.01 µM) | relative viability (Venetoclax + Olaparib; first compound 0.03162 µM) | relative viability (Venetoclax + Olaparib; first compound 0.1 µM) | relative viability (Venetoclax + Olaparib; first compound 0.3162 µM) | relative viability (Venetoclax + Olaparib; first compound 1 µM) | relative viability (Selumetinib + Linsitinib; first compound 0.02 µM) | relative viability (Selumetinib + Linsitinib; first compound 0.06325 µM) | relative viability (Selumetinib + Linsitinib; first compound 0.2 µM) | relative viability (Selumetinib + Linsitinib; first compound 0.6325 µM) | relative viability (Selumetinib + Bortezomib; first compound 0.02 µM) | relative viability (Selumetinib + Bortezomib; first compound 0.06325 µM) | relative viability (Selumetinib + Bortezomib; first compound 0.2 µM) | relative viability (Selumetinib + Bortezomib; first compound 0.6325 µM) | relative viability (Venetoclax + Alpelisib; first compound 0.01 µM) | relative viability (Venetoclax + Alpelisib; first compound 0.03162 µM) | relative viability (Venetoclax + Alpelisib; first compound 0.1 µM) | relative viability (Venetoclax + Alpelisib; first compound 0.3162 µM) | relative viability (Venetoclax + Alpelisib; first compound 1 µM) |
| --- | --- | --- | --- | --- | --- | --- | --- | --- | --- | --- | --- | --- | --- | --- | --- | --- | --- | --- |
| NCI-H1993 | 1.03 | 0.952 | 0.986 | 0.99 | 1.08 | 0.746 | 0.688 | 0.754 | 0.878 | 0.861 | 0.897 | 0.873 | 0.806 | 0.676 | 0.696 | 0.665 | 0.617 | 0.68 |
| NCI-H650 | 0.356 | 0.425 | 0.375 | 0.383 | 0.365 | 1.18 | 1.03 | 0.941 | 1.07 | 1.01 | 0.995 | 1.25 | 1.17 | 1.07 | 0.989 | – | 1.13 | 1.01 |
| NCI-H460 | 0.39 | 0.414 | 0.359 | 0.44 | 0.398 | 0.666 | 0.429 | 0.262 | 0.214 | 0.962 | 0.684 | 0.852 | 0.458 | 0.539 | 0.446 | 0.446 | 0.472 | 0.447 |
| NCI-H1437 | 0.607 | 0.616 | 0.624 | 0.615 | 0.601 | 0.905 | 0.714 | 0.423 | 0.277 | 0.486 | 0.378 | 0.316 | 0.276 | 0.985 | 0.989 | 1.05 | 0.938 | 0.926 |
| NCI-H2347 | 0.578 | 0.558 | 0.514 | 0.633 | 0.537 | 0.748 | 0.633 | 0.47 | 0.436 | 0.755 | 0.817 | 0.6 | 0.45 | 1.04 | 1.04 | 1.06 | 1 | 1.04 |
| LC-2-ad | 0.735 | 0.696 | 0.664 | 0.702 | 0.708 | 0.824 | 0.801 | 0.653 | 0.9 | 1.05 | 1.01 | 0.831 | 0.943 | 0.839 | 0.906 | 1.02 | 0.871 | 0.905 |
| NCI-H661 | 0.745 | 0.789 | 0.715 | 0.74 | 0.708 | 0.614 | 0.455 | 0.469 | 0.457 | 0.751 | 0.847 | 0.722 | 0.575 | 0.597 | 1.11 | 0.878 | 0.569 | 0.48 |
| NCI-H2126 | 0.85 | 0.936 | 0.838 | 0.915 | 0.913 | 0.679 | 0.674 | 0.595 | 0.538 | 1.09 | 1.01 | 0.984 | 0.996 | 0.807 | 0.728 | 0.759 | 0.819 | 0.796 |
| EPLC-272H | 0.63 | 0.697 | 0.803 | 0.786 | 0.83 | 0.968 | 1.09 | 0.848 | 1.06 | 0.966 | 0.864 | 0.779 | 0.567 | – | 0.95 | 0.986 | 1.11 | 0.977 |
